In US20250282794A1 (CURADEV PHARMA LTD, priority 2022, published 2025):
Structures can show the parent of a compound that is named as a salt.

biological target: recombinant full length HPK-1 enzyme (Homo sapiens (Human), UniProt Q92918); assay: HPK-1 biochemical enzyme assay (ADP-Glo kinase inhibition); conditions: recombinant full length HPK-1 6.8 nM, 10 μM ATP, 12.5 μM MBP, 30 mins at 25° C.
Description: HPK-1 biochemical enzyme assay
Compound inhibitory potency was measured in an HPK-1 kinase inhibition assay. Briefly, recombinant full length HPK-1 enzyme (6.8 nM) was incubated with 10 μM ATP and 12.5 μM swine myelin basic protein (MBP) for 30 mins. at 25° C. in the presence of various concentrations of test compound or vehicle in 40 mM Tris.Cl pH7.4 buffer containing 20 mM MgCl2, 50 μM DTT and 0.1 mg/mL BSA. Reactions were quenched and reaction mixtures were then analyzed by an ADP-Glo kit which measures the formed ADP. The percent inhibition was calculated from the substrate conversion considering no enzyme control reactions for 100% inhibition and vehicle only reactions for 0% inhibition. The compounds were dissolved in DMSO and evaluated at 10 concentrations to determine an IC50 value.
In the below table A denotes an HPK-1 IC50≤10 nM, B denotes an HPK-1 IC50>10 nM but≤100 nM and C denotes an HPK-1 IC50>100 nM but≤1000 nM.

Sequence of recombinant full length HPK-1 enzyme (Q92918 whole entry, species assumed): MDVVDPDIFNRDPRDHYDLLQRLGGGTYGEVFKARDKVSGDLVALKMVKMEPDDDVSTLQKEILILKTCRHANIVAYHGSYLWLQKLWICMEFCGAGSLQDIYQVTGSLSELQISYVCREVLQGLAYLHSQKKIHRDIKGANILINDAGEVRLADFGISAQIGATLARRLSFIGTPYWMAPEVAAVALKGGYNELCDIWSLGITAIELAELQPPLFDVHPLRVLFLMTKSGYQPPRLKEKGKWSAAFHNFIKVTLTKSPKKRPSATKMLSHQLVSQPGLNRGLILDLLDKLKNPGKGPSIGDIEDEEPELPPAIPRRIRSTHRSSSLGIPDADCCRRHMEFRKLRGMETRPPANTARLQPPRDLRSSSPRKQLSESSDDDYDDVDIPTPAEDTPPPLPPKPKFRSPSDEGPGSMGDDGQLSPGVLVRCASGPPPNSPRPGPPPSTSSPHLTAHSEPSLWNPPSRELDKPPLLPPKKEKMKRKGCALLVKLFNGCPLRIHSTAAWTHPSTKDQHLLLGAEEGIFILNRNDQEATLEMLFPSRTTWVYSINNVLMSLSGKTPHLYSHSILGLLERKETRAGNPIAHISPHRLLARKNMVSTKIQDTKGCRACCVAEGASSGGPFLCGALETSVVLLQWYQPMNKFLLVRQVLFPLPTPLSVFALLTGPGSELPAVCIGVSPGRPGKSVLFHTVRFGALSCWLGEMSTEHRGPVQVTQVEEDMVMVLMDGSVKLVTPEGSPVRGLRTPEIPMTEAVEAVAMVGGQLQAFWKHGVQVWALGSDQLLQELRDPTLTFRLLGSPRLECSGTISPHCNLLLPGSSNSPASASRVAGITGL

| Compound | IC50 [nM] |
| --- | --- |
| Cc1c(Nc2cc[nH]c(=O)c2C(=O)Nc2ccc(N3CCN(C)CC3)cc2)cnc2c1NCCO2 [Example 45, 4-((8-Methyl-2,3-dihydro-1H-pyrido[2,3-b][1,4]oxazin-7-yl)amino)-N-(4-(4-methylpiperazin-1-yl)phenyl)-2-oxo-1,2-dihydropyridine-3-carboxamide] | ≤ 10 |
| Cc1c(Nc2cc[nH]c(=O)c2C(=O)Nc2ccc(N3CCN(C)CC3)cc2)cnc2c1N(C)CCO2 [Example 93, 4-((1,8-dimethyl-2,3-dihydro-1H-pyrido[2,3-b][1,4]oxazin-7-yl)amino)-N-(4-(4-methylpiperazin-1-yl)phenyl)-2-oxo-1,2-dihydropyridine-3-carboxamide] | 10 to 100 |
| Cc1c(Nc2cc[nH]c(=O)c2C(=O)Nc2ccc(N3CCN(C)CC3)c(F)c2)cnc2c1NCCO2 [Example 96, N-(3-fluoro-4-(4-methylpiperazin-1-yl)phenyl)-4-((8-methyl-2,3-dihydro-1H-pyrido[2,3-b][1,4]oxazin-7-yl)amino)-2-oxo-1,2-dihydropyridine-3-carboxamide] | ≤ 10 |
| Cc1c(Nc2cc[nH]c(=O)c2C(=O)Nc2ccc(C3CCN(C)CC3)cc2)cnc2c1NCCO2 [Example 97, 4-((8-methyl-2,3-dihydro-1H-pyrido[2,3-b][1,4]oxazin-7-yl)amino)-N-(4-(1-methylpiperidin-4-yl)phenyl)-2-oxo-1,2-dihydropyridine-3-carboxamide] | ≤ 10 |
| Cc1c(Nc2nc[nH]c(=O)c2C(=O)Nc2ccc(N3CCN(C)CC3)cc2)cnc2c1NCCO2 [Example 98, 4-((8-Methyl-2,3-dihydro-1H-pyrido[2,3-b][1,4]oxazin-7-yl)amino)-N-(4-(4-methylpiperazin-1-yl)phenyl)-6-oxo-1,6-dihydropyrimidine-5-carboxamide] | 10 to 100 |
| Cc1c(Nc2cc[nH]c(=O)c2C(=O)Nc2ccc(N3CCN(CCO)CC3)cc2)cnc2c1NCCO2 [Example 105, N-(4-(4-(2-hydroxyethyl)piperazin-1-yl)phenyl)-4-((8-methyl-2,3-dihydro-1H-pyrido[2,3-b][1,4]oxazin-7-yl)amino)-2-oxo-1,2-dihydropyridine-3-carboxamide] | ≤ 10 |
| Cc1c(Nc2cc[nH]c(=O)c2C(=O)Nc2ccc(N3CCN(C(C)C)CC3)cc2)cnc2c1NCCO2 [Example 106, N-(4-(4-isopropylpiperazin-1-yl)phenyl)-4-((8-methyl-2,3-dihydro-1H-pyrido[2,3-b][1,4]oxazin-7-yl)amino)-2-oxo-1,2-dihydropyridine-3-carboxamide] | ≤ 10 |
| CN1CCN(c2ccc(NC(=O)c3c(Nc4cnc5c(c4)NCCO5)cc[nH]c3=O)cc2)CC1 [Example 115, 4-((2,3-dihydro-1H-pyrido[2,3-b][1,4]oxazin-7-yl)amino)-N-(4-(4-methylpiperazin-1-yl)phenyl)-2-oxo-1,2-dihydropyridine-3-carboxamide.TFA] | 10 to 100 |
| CN1CCN(c2ccc(NC(=O)c3c(Nc4cnc5c(c4)N(C)CCO5)cc[nH]c3=O)cc2)CC1 [Example 118, 4-((1-methyl-2,3-dihydro-1H-pyrido[2,3-b][1,4]oxazin-7-yl)amino)-N-(4-(4-methylpiperazin-1-yl)phenyl)-2-oxo-1,2-dihydropyridine-3-carboxamide] | 10 to 100 |
| Cc1c(Nc2cc[nH]c(=O)c2C(=O)Nc2ccc(N3CCN(C)CC3)cc2)cnc2c1NCC(C)O2 (centres unmarked) [Example 125, 4-((3,8-dimethyl-2,3-dihydro-1H-pyrido[2,3-b][1,4]oxazin-7-yl)amino)-N-(4-(4-methylpiperazin-1-yl)phenyl)-2-oxo-1,2-dihydropyridine-3-carboxamide] | 10 to 100 |
| Cc1c(Nc2cc[nH]c(=O)c2C(=O)Nc2ccc(N3CCN(C)CC3)cc2)cnc2c1NC(=O)CO2 [Example 126, 4-((8-methyl-2-oxo-2,3-dihydro-1H-pyrido[2,3-b][1,4]oxazin-7-yl)amino)-N-(4-(4-methylpiperazin-1-yl)phenyl)-2-oxo-1,2-dihydropyridine-3-carboxamide] | 10 to 100 |
| Cc1c(Nc2cc[nH]c(=O)c2C(=O)Nc2ccc(-c3ccccn3)cc2)cnc2c1NCCO2 [Example 130, 4-((8-methyl-2,3-dihydro-1H-pyrido[2,3-b][1,4]oxazin-7-yl)amino)-2-oxo-N-(4-(pyridin-2-yl)phenyl)-1,2-dihydropyridine-3-carboxamide] | 10 to 100 |
| COc1c(Nc2cc[nH]c(=O)c2C(=O)Nc2ccc(N3CCN(C)CC3)cc2)cnc2c1NCCO2 [Example 132, 4-((8-Methoxy-2,3-dihydro-1H-pyrido[2,3-b][1,4]oxazin-7-yl)amino)-N-(4-(4-methylpiperazin-1-yl)phenyl)-2-oxo-1,2-dihydropyridine-3-carboxamide] | 10 to 100 |
| Cc1c(Nc2cc[nH]c(=O)c2C(=O)Nc2ccc(C3CCOCC3)cc2)cnc2c1NCCO2 [Example 133, 4-((8-methyl-2,3-dihydro-1H-pyrido[2,3-b][1,4]oxazin-7-yl)amino)-2-oxo-N-(4-(tetrahydro-2H-pyran-4-yl)phenyl)-1,2-dihydropyridine-3-carboxamide] | 10 to 100 |
| Cc1c(Nc2cc[nH]c(=O)c2C(=O)Nc2ccc(N3CCN(C(C)C)CC3)c(F)c2)cnc2c1NCCO2 [Example 134, N-(3-fluoro-4-(4-isopropylpiperazin-1-yl)phenyl)-4-((8-methyl-2,3-dihydro-1H-pyrido[2,3-b][1,4]oxazin-7-yl)amino)-2-oxo-1,2-dihydropyridine-3-carboxamide] | ≤ 10 |
| CCN1CCN(c2ccc(NC(=O)c3c(Nc4cnc5c(c4C)NCCO5)cc[nH]c3=O)cc2F)CC1 [Example 135, N-(4-(4-ethylpiperazin-1-yl)-3-fluorophenyl)-4-((8-methyl-2,3-dihydro-1H-pyrido[2,3-b][1,4]oxazin-7-yl)amino)-2-oxo-1,2-dihydropyridine-3-carboxamide] | ≤ 10 |
| CCN1CCN(c2ccc(NC(=O)c3c(Nc4cnc5c(c4C)NCCO5)cc[nH]c3=O)cc2)CC1 [Example 136, N-(4-(4-ethylpiperazin-1-yl)phenyl)-4-((8-methyl-2,3-dihydro-1H-pyrido[2,3-b][1,4]oxazin-7-yl)amino)-2-oxo-1,2-dihydropyridine-3-carboxamide] | ≤ 10 |
| Cc1c(Nc2cc[nH]c(=O)c2C(=O)Nc2ccc(N3CCN(C(=O)N(C)C)CC3)cc2)cnc2c1NCCO2 [Example 137, N,N-Dimethyl-4-(4-(4-((8-methyl-2,3-dihydro-1H-pyrido[2,3-b][1,4]oxazin-7-yl)amino)-2-oxo-1,2-dihydropyridine-3-carboxamido)phenyl) piperazine-1-carboxamide] | ≤ 10 |
| Cc1c(Nc2cc[nH]c(=O)c2C(=O)Nc2ccc(N3CCS(=O)(=O)CC3)cc2)cnc2c1NCCO2 [Example 138, N-(4-(1,1-dioxidothiomorpholino)phenyl)-4-((8-methyl-2,3-dihydro-1H-pyrido[2,3-b][1,4]oxazin-7-yl)amino)-2-oxo-1,2-dihydropyridine-3-carboxamide] | ≤ 10 |
| Cc1c(Nc2cc[nH]c(=O)c2C(=O)Nc2ccc(N3CCNCC3)cc2)cnc2c1NCCO2 [Example 139, 4-((8-methyl-2,3-dihydro-1H-pyrido[2,3-b][1,4]oxazin-7-yl)amino)-2-oxo-N-(4-(piperazin-1-yl)phenyl)-1,2-dihydropyridine-3-carboxamide] | ≤ 10 |
| COCCN1CCN(c2ccc(NC(=O)c3c(Nc4cnc5c(c4C)NCCO5)cc[nH]c3=O)cc2)CC1 [Example 140, N-(4-(4-(2-methoxyethyl)piperazin-1-yl)phenyl)-4-((8-methyl-2,3-dihydro-1H-pyrido[2,3-b][1,4]oxazin-7-yl)amino)-2-oxo-1,2-dihydropyridine-3-carboxamide] | ≤ 10 |
| Cc1c(Nc2cc[nH]c(=O)c2C(=O)Nc2ccc(N3CCN(C(=O)N4CCC(F)(F)C4)CC3)cc2)cnc2c1NCCO2 [Example 143, N-(4-(4-(3,3-difluoropyrrolidine-1-carbonyl)piperazin-1-yl)phenyl)-4-((8-methyl-2,3-dihydro-1H-pyrido[2,3-b][1,4]oxazin-7-yl)amino)-2-oxo-1,2-dihydropyridine-3-carboxamide] | ≤ 10 |
| Cc1c(Nc2cc[nH]c(=O)c2C(=O)Nc2ccc(-c3cn[nH]c3)cc2)cnc2c1NCCO2 [Example 144, N-(4-(1H-pyrazol-4-yl)phenyl)-4-((8-methyl-2,3-dihydro-1H-pyrido[2,3-b][1,4]oxazin-7-yl)amino)-2-oxo-1,2-dihydropyridine-3-carboxamide] | 10 to 100 |
| Cc1c(Nc2cc[nH]c(=O)c2C(=O)Nc2ccc(-c3cc[nH]n3)cc2)cnc2c1NCCO2 [Example 145, N-(4-(1H-pyrazol-3-yl)phenyl)-4-((8-methyl-2,3-dihydro-1H-pyrido[2,3-b][1,4]oxazin-7-yl)amino)-2-oxo-1,2-dihydropyridine-3-carboxamide] | 10 to 100 |
| Cc1c(Nc2cc[nH]c(=O)c2C(=O)Nc2ccc(-c3cnco3)cc2)cnc2c1NCCO2 [Example 146, 4-((8-methyl-2,3-dihydro-1H-pyrido[2,3-b][1,4]oxazin-7-yl)amino)-N-(4-(oxazol-5-yl)phenyl)-2-oxo-1,2-dihydropyridine-3-carboxamide] | 10 to 100 |
| Cc1c(Nc2cc[nH]c(=O)c2C(=O)Nc2ccc(N3CCN(C4CCCC4)CC3)cc2)cnc2c1NCCO2 [Example 147, N-(4-(4-cyclopentylpiperazin-1-yl)phenyl)-4-((8-methyl-2,3-dihydro-1H-pyrido[2,3-b][1,4]oxazin-7-yl)amino)-2-oxo-1,2-dihydropyridine-3-carboxamide] | ≤ 10 |
